These results are taken from patent US20230011571A1, “SMALL MOLECULE FURIN INHIBITORS FOR TREATING INFECTIOUS DISEASES” (BP Asset V, Inc., priority 2019, published 2023).

Assay type in all cases: cell-based
For assay [1], the system named is Chikungunya virus (CHIKV). In words: microbe, parasite or virus in culture. The note with it: Chikungunya virus, Vero, 48 h, read-out: Percent viral inhibition CHKV.
The test system of the next assay is dengue virus (DENV). Kind of assay: microbe, parasite or virus in culture. The note with it: Dengue virus, Vero, 120 h, read-out: Percent viral inhibition DENY.
A further assay concerns Marburg virus (MARV). In words: organism not typed. The following applies: Vero, 72 h, read-out: Percent viral inhibition MARV.

By inhibition is commonly meant the share of the control response that was lost under treatment. `CC(CC1CCN(Cc2cc(Oc3cnc(N4CCN(C[C@@H](C)O)CC4)nc3)nc(-c3cc(Cl)cc(Cl)c3)c2)CC1)C(=O)O` (stereo partly drawn) [Example 301, 3-(1-((2-(3,5-dichlorophenyl)-6-((2-(4-((R)-2-hydroxypropyl)piperazin-1-yl)pyrimidin-5-yl)oxy)pyridin-4-yl)methyl)piperidin-4-yl)-2-methylpropanoic acid]: the values for the inhibition at 1 µM (in assay [1]; in the assay with dengue virus (DENV); with Marburg virus (MARV)) were 28.8%, 56.1% and 68.4%, respectively.
In the case of `CC(=O)NCC1CCN(Cc2cc(Oc3cnc(N4CCN(C[C@@H](C)O)CC4)nc3)nc(-c3cc(Cl)cc(Cl)c3)c2)CC1` [Example 302, (R)-N-((1-((2-(3,5-dichlorophenyl)-6-((2-(4-(2-hydroxypropyl)piperazin-1-yl)pyrimidin-5-yl)oxy)pyridin-4-yl)methyl)piperidin-4-yl)methyl)acetamide], the inhibition at 1 µM in assay [1] was 39%; in the assay with dengue virus (DENV) it was 26.6%; in the assay with Marburg virus (MARV) it was 56.9%.
Regarding `CC(=O)NCC1CCN(Cc2cc(Oc3cnc(N4CCN(CC(C)(C)O)CC4)nc3)nc(-c3cc(Cl)cc(Cl)c3)c2)CC1` [Example 303, N-((1-((2-(3,5-dichlorophenyl)-6-((2-(4-(2-hydroxy-2-methylpropyl)piperazin-1-yl)pyrimidin-5-yl)oxy)pyridin-4-yl)methyl)piperidin-4-yl)methyl)acetamide], the inhibition at 1 µM in assay [1] worked out at 33.4%; with dengue virus (DENV) it was 34.4%; with Marburg virus (MARV), 49.6%.
For `CC(=O)NCC1CCN(Cc2cc(Oc3cnc(N4CCN(CC(O)CF)CC4)nc3)nc(-c3cc(Cl)cc(Cl)c3)c2)CC1` (stereo not drawn) [Example 304, N-((1-((2-(3,5-dichlorophenyl)-6-((2-(4-(3-fluoro-2-hydroxypropyl)piperazin-1-yl)pyrimidin-5-yl)oxy)pyridin-4-yl)methyl)piperidin-4-yl)methyl)acetamide], the inhibition at 1 µM in assay [1] came out at 0%; with dengue virus (DENV) it was 41.8%; with Marburg virus (MARV), 12.4%.
With `O=C(O)CC1CCN(Cc2cc(Oc3cnc(N4CCN(CCO)CC4)nc3)nc(-c3cc(Cl)cc(Cl)c3)c2)CC1` [Example 306, 2-(1-((2-(3,5-dichlorophenyl)-6-((2-(4-(2-hydroxyethyl)piperazin-1-yl)pyrimidin-5-yl)oxy)pyridin-4-yl)methyl)piperidin-4-yl)acetic acid], the inhibition at 1 µM was 13.6% in assay [1], 7.27% in the assay on dengue virus (DENV) and 51.1% in the assay on Marburg virus (MARV).
For the compound `CNC(=O)OCC1CCN(Cc2cc(Oc3cnc(N4CCN(C[C@@H](C)O)CC4)nc3)nc(-c3cc(Cl)cc(Cl)c3)c2)CC1` [Example 308, (R)-(1-((2-(3,5-dichlorophenyl)-6-((2-(4-(2-hydroxypropyl)piperazin-1-yl)pyrimidin-5-yl)oxy)pyridin-4-yl)methyl)piperidin-4-yl)methylmethylcarbamate], the inhibition at 1 µM was found to be 0% in assay [1], 0% in the assay with dengue virus (DENV) and 23.7% in the assay on Marburg virus (MARV).
`CNC(=O)NCC1CCN(Cc2cc(Oc3cnc(N4CCN(C[C@@H](C)O)CC4)nc3)nc(-c3cc(Cl)cc(Cl)c3)c2)CC1` [Example 310, (R)-1-((1-((2-(3,5-dichlorophenyl)-6-((2-(4-(2-hydroxypropyl)piperazin-1-yl)pyrimidin-5-yl)oxy)pyridin-4-yl)methyl)piperidin-4-yl)methyl)-3-methylurea]: the inhibition at 1 µM in assay [1] was 2.85%; in the assay on dengue virus (DENV) it was 19.3%; in the assay on Marburg virus (MARV), 18%.
Regarding `COC(=O)NCC1CCN(Cc2cc(Oc3cnc(N4CCN(CCO)CC4)nc3)nc(-c3cc(Cl)cc(Cl)c3)c2)CC1` [Example 311, methyl((1-((2-(3,5-dichlorophenyl)-6-((2-(4-(2-hydroxyethyl)piperazin-1-yl)pyrimidin-5-yl)oxy)pyridin-4-yl)methyl)piperidin-4-yl)methyl)carbamate], the inhibition at 1 µM was 8.41% in assay [1], 0% in the assay with dengue virus (DENV) and 17.5% in the assay with Marburg virus (MARV).
`O=C(O)CCC1CCN(Cc2cc(Oc3ccc(N4CCN(CCO)CC4)nc3)nc(-c3cc(Cl)cc(Cl)c3)c2)CC1` [Example 314, 3-(1-((2-(3,5-dichlorophenyl)-6-((6-(4-(2-hydroxyethyl)piperazin-1-yl)pyridin-3-yl)oxy)pyridin-4-yl)methyl)piperidin-4-yl)propanoic acid]: the inhibition at 1 µM was determined as 32% in assay [1], 7.86% with dengue virus (DENV) and 52.1% with Marburg virus (MARV).
In the same order, the values of `CC(=O)NCC1CCN(Cc2cc(Oc3cnc(N4CCN(CC(O)C(=O)O)CC4)nc3)nc(-c3cc(Cl)cc(Cl)c3)c2)CC1` (stereo not drawn) [Example 316, 3-(4-(5-((4-((4-(acetamidomethyl)piperidin-1-yl)methyl)-6-(3,5-dichlorophenyl)pyridin-2-yl)oxy)pyrimidin-2-yl)piperazin-1-yl)-2-hydroxypropanoic acid] are 30.6%, 55.9% and 54.4%.
With `C[C@@H](O)CN1CCN(c2ncc(Oc3cc(CN4CCC(OCC(=O)O)CC4)cc(-c4cc(Cl)cc(Cl)c4)n3)cn2)CC1` [Example 317, (R)-2-((1-((2-(3,5-dichlorophenyl)-6-((2-(4-(2-hydroxypropyl)piperazin-1-yl)pyrimidin-5-yl)oxy)pyridin-4-yl)methyl)piperidin-4-yl)oxy)acetic acid], the inhibition at 1 µM in assay [1] was 14.8%; with dengue virus (DENV), 20.2%; in the assay on Marburg virus (MARV), 53.6%.
With `CN1CCN(c2ncc(Oc3cc(CN4CCC(CB(O)O)CC4)cc(-c4cc(Cl)cc(Cl)c4)n3)cn2)CC1` [Example 318, ((1-((2-(3,5-dichlorophenyl)-6-((2-(4-methylpiperazin-1-yl)pyrimidin-5-yl)oxy)pyridin-4-yl)methyl)piperidin-4-yl)methyl)boronic acid], the inhibition at 1 µM came out at 15.3% in assay [1], 44.6% in the assay with dengue virus (DENV) and 31.6% in the assay on Marburg virus (MARV).
For the compound `CN1CCN(c2ncc(Oc3cc(CN4CCC(CP(C)(C)=O)CC4)cc(-c4cc(Cl)cc(Cl)c4)n3)cn2)CC1` [Example 320, ((1-((2-(3,5-dichlorophenyl)-6-((2-(4-methylpiperazin-1-yl)pyrimidin-5-yl)oxy)pyridin-4-yl)methyl)piperidin-4-yl)methyl)dimethylphosphineoxide], the inhibition at 1 µM in assay [1] came out at 17.5%; in the assay on dengue virus (DENV), 15.3%; with Marburg virus (MARV) it was 52.5%.
In the case of `CN1CCN(c2ncc(Oc3cc(CN4CC[C@@H]5[C@H](CC4)[C@H]5C(=O)O)cc(-c4cc(Cl)cc(Cl)c4)n3)cn2)CC1` [Example 321, (1R,7S,8r)-4-((2-(3,5-dichlorophenyl)-6-((2-(4-methylpiperazin-1-yl)pyrimidin-5-yl)oxy)pyridin-4-yl)methyl)-4-azabicyclo[5.1.0]octane-8-carboxylic acid], the inhibition at 1 µM turned out to be 23.8% in assay [1], 27.3% with dengue virus (DENV) and 43.4% in the assay with Marburg virus (MARV).
The corresponding values for `CN1CCN(c2ncc(Oc3cc(CN4CCC(CCB(O)O)CC4)cc(-c4cc(Cl)cc(Cl)c4)n3)cn2)CC1` [Example 323, (2-(1-((2-(3,5-dichlorophenyl)-6-((2-(4-methylpiperazin-1-yl)pyrimidin-5-yl)oxy)pyridin-4-yl)methyl)piperidin-4-yl)ethyl)boronic acid] are 5.87%, 0% and 30.7%.
Take `COC(=O)NC(=O)NCC1CCN(Cc2cc(Oc3cnc(N4CCN(C)CC4)nc3)nc(-c3cc(Cl)cc(Cl)c3)c2)CC1` [Example 325, N-1-((1-((2-(3,5-dichlorophenyl)-6-((2-(4-methylpiperazin-1-yl)pyrimidin-5-yl)oxy)pyridin-4-yl)methyl)piperidin-4-yl)methyl)-N′-methoxyl-carbonylurea]: the inhibition at 1 µM amounted to 0% in assay [1], 5.08% in the assay with dengue virus (DENV) and 0% with Marburg virus (MARV).
In the case of `CN1CCN(c2ncc(Oc3cc(CN4CCC(CNC(=O)NS(C)(=O)=O)CC4)cc(-c4cc(Cl)cc(Cl)c4)n3)cn2)CC1` [Example 326, N-(((1-((2-(3,5-dichlorophenyl)-6-((2-(4-methylpiperazin-1-yl)pyrimidin-5-yl)oxy)pyridin-4-yl)methyl)piperidin-4-yl)methyl)carbamoyl)methane-sulfonamide], the inhibition at 1 µM in assay [1] was 22.7%; in the assay with dengue virus (DENV), 45.5%; in the assay with Marburg virus (MARV) it was 63.9%.
With `CC(=O)NC(=O)NCC1CCN(Cc2cc(Oc3cnc(N4CCN(C)CC4)nc3)nc(-c3cc(Cl)cc(Cl)c3)c2)CC1` [Example 327, N-(((1-((2-(3,5-dichlorophenyl)-6-((2-(4-methylpiperazin-1-yl)pyrimidin-5-yl)oxy)pyridin-4-yl)methyl)piperidin-4-yl)methyl)carbamoyl)acetamide], the inhibition at 1 µM in assay [1] is 0%; in the assay with dengue virus (DENV) it was 0%; in the assay on Marburg virus (MARV), 63.8%.
For `CN1CCN(c2ncc(Oc3cc(CN4CCC(NC(=O)NS(C)(=O)=O)CC4)cc(-c4cc(Cl)cc(Cl)c4)n3)cn2)CC1` [Example 328, N-((1-((2-(3,5-dichlorophenyl)-6-((2-(4-methylpiperazin-1-yl)pyrimidin-5-yl)oxy)pyridin-4-yl)methyl)piperidin-4-yl)carbamoyl)methanesulfonamide], the inhibition at 1 µM in assay [1] worked out at 37.5%; with dengue virus (DENV) it was 55.8%; in the assay with Marburg virus (MARV), 49.5%.
In the same order, the values of `CN1CCN(c2ncc(Oc3cc(CN4CCC(NC(N)=O)CC4)cc(-c4cc(Cl)cc(Cl)c4)n3)cn2)CC1` [Example 329, 1-(1-((2-(3,5-dichlorophenyl)-6-((2-(4-methylpiperazin-1-yl)pyrimidin-5-yl)oxy)pyridin-4-yl)methyl)piperidin-4-yl)urea] are 22.2%, 19.2% and 42.3%.
